Earlier results as cited in paper PMC4369286 (Chemistry Central Journal, 2015).
Read-outs that look alike come from different tables or passages of the source.

How the values were obtained:
[1] = for E (excess molar refractivity descriptor): known values used for comparison
[2] = value of the pure solvent
[3] = set-up: method as in earlier work; conditions: direct partition, monomer
[4] = in several of the organic solvents studied
[5] = known value given as comparison

CCOC(=O)/C=C/c1ccccc1 [ethyl cinnamate]
E (excess molar refractivity descriptor) [1]: 1.102

CC(C)=O [propanone]
Kamlet-Taft solvent hydrogen bond basicity, β [2]: 0.43

CO [methanol]
Kamlet-Taft solvent hydrogen bond basicity, β [2]: 0.66

CCCOC(C)=O [propyl acetate]
Kamlet-Taft solvent hydrogen bond basicity, β [2]: 0.40

CCOC(=O)c1ccccc1 [ethyl benzoate]
E (excess molar refractivity descriptor) [1]: 0.689

O=C(O)/C=C/c1ccccc1 [trans-cinnamic acid]
Log Ps (water-solvent partition coefficient) ([3]; solvent Cyclohexane): −0.25
Log Ps (water-solvent partition coefficient) ([3]; solvent Diethyl ether, wet): 1.92
Log Ps (water-solvent partition coefficient) ([3]; solvent Octan-1-ol, wet): 2.13
Log Ps (water-solvent partition coefficient) ([3]; solvent Tetrachloromethane): 0.40
Log Ps (water-solvent partition coefficient) ([3]; solvent Trichloromethane): 1.20

O=[N+]([O-])c1ccccc1 [nitrobenzene]
Kamlet-Taft solvent hydrogen bond basicity, β [2]: 0.30

ClC(Cl)Cl [trichloromethane]
Kamlet-Taft solvent hydrogen bond basicity, β [2]: 0.10

CC(=O)Oc1ccccc1C(=O)O [aspirin]
solubility in organic solvents [4]: exceeding 1 molar

C1CCCCC1 [cyclohexane]
Kamlet-Taft solvent hydrogen bond basicity, β [2]: 0.00

O=C(O)c1ccccc1 [Benzoic acid, benzoic acid]
Kdimer (dimerization constant) (in benzene): 590
Kdimer (dimerization constant) (in cyclohexane): 11300
Kdimer (dimerization constant) (in tetrachloromethane): 5010
S (dipolarity/polarity descriptor) [1, 5]: 0.90
V (McGowan characteristic volume descriptor) [1, 5]: 0.9317
E (excess molar refractivity descriptor) [1]: 0.73
E (excess molar refractivity descriptor) ([1]; listed as benzoic acid): 0.730

CCOCC [diethyl ether]
Kamlet-Taft solvent hydrogen bond basicity, β [2]: 0.47

OCC(F)(F)F [trifluoroethanol]
Kamlet-Taft solvent hydrogen bond basicity, β [2]: 0.00

CC#N [acetonitrile]
Kamlet-Taft solvent hydrogen bond basicity, β [2]: 0.40
